Tests used:
[1] = biological target: Epidermal growth factor receptor (Homo sapiens, UniProt P00533, L858R/T790M); experiment: Inhibition of GST-tagged recombinant human EGFR T790M/L858R mutant (668 to 1210 residues) expressed in Insect cells incubated for 60 mins in presence of ATP by biochemical enzymatic assay; set-up: species or system Insect cell
[2] = biological target: Epidermal growth factor receptor (Homo sapiens, UniProt P00533); experiment: Inhibition of wildtype EGFR (unknown origin) incubated for 60 mins in presence of ATP by biochemical enzymatic assay
Epidermal growth factor receptor (Homo sapiens, UniProt P00533), sequence (P00533 whole entry): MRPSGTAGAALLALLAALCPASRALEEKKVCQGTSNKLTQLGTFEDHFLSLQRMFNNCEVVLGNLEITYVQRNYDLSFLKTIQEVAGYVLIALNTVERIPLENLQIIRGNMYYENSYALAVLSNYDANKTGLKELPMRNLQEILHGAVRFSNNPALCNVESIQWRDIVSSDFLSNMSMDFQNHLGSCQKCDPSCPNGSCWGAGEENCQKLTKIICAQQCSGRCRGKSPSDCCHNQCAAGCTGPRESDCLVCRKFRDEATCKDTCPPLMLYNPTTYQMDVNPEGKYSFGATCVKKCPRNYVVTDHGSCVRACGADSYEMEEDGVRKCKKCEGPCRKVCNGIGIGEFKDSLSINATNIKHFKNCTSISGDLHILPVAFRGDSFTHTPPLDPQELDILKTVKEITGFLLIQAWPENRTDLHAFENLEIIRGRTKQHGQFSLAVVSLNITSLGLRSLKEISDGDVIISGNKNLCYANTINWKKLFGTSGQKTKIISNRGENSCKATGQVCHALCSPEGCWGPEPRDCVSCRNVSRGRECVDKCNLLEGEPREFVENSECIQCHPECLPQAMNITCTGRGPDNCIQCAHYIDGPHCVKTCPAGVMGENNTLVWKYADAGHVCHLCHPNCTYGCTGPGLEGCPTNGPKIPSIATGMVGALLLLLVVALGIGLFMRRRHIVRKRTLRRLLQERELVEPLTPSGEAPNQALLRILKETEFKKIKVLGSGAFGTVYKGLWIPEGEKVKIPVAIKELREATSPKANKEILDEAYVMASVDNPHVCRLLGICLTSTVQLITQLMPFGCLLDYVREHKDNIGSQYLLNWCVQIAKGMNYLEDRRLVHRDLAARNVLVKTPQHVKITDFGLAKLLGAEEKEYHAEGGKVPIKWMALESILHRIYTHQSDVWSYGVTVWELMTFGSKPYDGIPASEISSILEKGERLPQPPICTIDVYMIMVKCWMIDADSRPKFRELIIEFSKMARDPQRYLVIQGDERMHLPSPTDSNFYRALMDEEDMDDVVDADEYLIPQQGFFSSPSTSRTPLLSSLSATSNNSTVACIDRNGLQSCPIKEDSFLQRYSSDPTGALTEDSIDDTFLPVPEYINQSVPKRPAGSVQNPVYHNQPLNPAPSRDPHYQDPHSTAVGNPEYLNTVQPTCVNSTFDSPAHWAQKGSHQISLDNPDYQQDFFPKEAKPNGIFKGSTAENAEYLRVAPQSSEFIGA

NCI-H1975 = experiment: Antiproliferative activity against human NCI-H1975 cells harboring EGFR L858R/T790M mutant assessed as cell growth inhibition incubated for 72 hrs by CellTiter Glo assay; format: functional
HCC827 = experiment: Antiproliferative activity against human HCC827 cells harboring EGFR del19 mutant assessed as cell growth inhibition incubated for 72 hrs by CellTiter Glo assay; format: functional
BaF3 [3] = experiment: Antiproliferative activity against mouse BaF3 cells harboring EGFR V769_D770ins_ASV mutant assessed as cell growth inhibition incubated for 72 hrs by CellTiter Glo assay; format: functional
BaF3 [4] = experiment: Antiproliferative activity against mouse BaF3 cells harboring EGFR H773_V774ins_NPH mutant assessed as cell growth inhibition incubated for 72 hrs by CellTiter Glo assay; format: functional
BaF3 [5] = experiment: Antiproliferative activity against mouse BaF3 cells harboring EGFR D770_N771ins_SVD mutant assessed as cell growth inhibition incubated for 72 hrs by CellTiter Glo assay; format: functional
BaF3 [6] = experiment: Antiproliferative activity against mouse BaF3 cells harboring EGFR A763_Y764ins_FQEA mutant assessed as cell growth inhibition incubated for 72 hrs by CellTiter Glo assay; format: functional
PC-9 = experiment: Antiproliferative activity against human PC-9 cells harboring EGFR del19 mutant assessed as cell growth inhibition incubated for 72 hrs by CellTiter Glo assay; format: functional
[7] = Toxicity in rat at 80 mg/kg, po assessed as death administered for 28 days; format: organism-based; settings: in vivo, 672 h, time 28 day
A-431 = experiment: Antiproliferative activity against human A-431 cells harboring wildtype EGFR assessed as cell growth inhibition incubated for 72 hrs by CellTiter Glo assay; format: functional

Row | SMILES | IC50 [1] | IC50 [2] | also measured
1 | C=CC(=O)Nc1cc(Nc2nccc(-c3cnc4c(OC)cccn34)n2)c(OC)cc1N(C)CCN(C)C | 1.65 nM | 16.3 nM | 
2 | C=CC(=O)Nc1cc(Nc2nccc(-c3cn(C)c4ccccc34)n2)c(OC)cc1N(C)CCN(C)C [OSIMERTINIB] |  |  | GI50 (NCI-H1975): […]; GI50 (HCC827): 4.5 nM; GI50 (BaF3 [3]): 299 nM; GI50 (BaF3 [4]): 376 nM; GI50 (BaF3 [5]): 179 nM; GI50 (BaF3 [6]): 14 nM; GI50 (PC-9): 6.7 nM; Activity [7]: Toxic
3 | C=CC(=O)Nc1cc(Nc2nccc(-c3cnc4c(Cl)cccn34)n2)c(OC)cc1N(C)CCN(C)C |  |  | GI50 (NCI-H1975; Homo sapiens, NCI-H1975): 103 nM; GI50 (HCC827; Homo sapiens, HCC827): 5.6 nM; GI50 (A-431): 495 nM; GI50 (PC-9; Homo sapiens, PC-9): 7.3 nM
4 | C=CC(=O)Nc1cc(Nc2nccc(-c3ccc4c(C)nccn34)n2)c(OC)cc1N(C)CCN(C)C | 1.52 nM | 26 nM | 
5 | C=CC(=O)Nc1cc(Nc2nccc(-c3cnc4c(C)cccn34)n2)c(OC)cc1N(C)C1CCCN(C)C1 (centres undefined) | 1.77 nM | 82.8 nM | 

Now from value to molecule, other results behind:

Row | IC50 [1] | IC50 [2] | SMILES | also measured
6 | 1.86 nM | 21.3 nM | C=CC(=O)Nc1cc(Nc2nccc(-c3nc(C)c4ccccn34)n2)c(OC)cc1N(C)CCN(C)C | 
7 | 1.38 nM | 49.1 nM | CC#CC(=O)Nc1cc(Nc2nccc(-c3ncc4c(C)cccn34)n2)c(OC)cc1N(C)CCN(C)C | 
8 | 22.4 nM | 963 nM | C=CC(=O)Nc1cc(Nc2nccc(-c3ncn4c(C)cccc34)n2)c(OC)cc1N(C)CCN(C)C | 
